Data reported in patent US6649644B1, “Method of treating HIV infection by combined use of a cytotoxic agent and a non-nucleoside reverse transcriptase inhibitor” (priority 1998, dated 2003).
Where two headings read alike, the source gives them in different places.

Columns and labels:
HIV-1 (RF strain) [1] = assay type: cell-based; conditions: for HIV Replication (Day 4), p24: single agent, human PBMCs, Table 2; for changes in the level of HIV p24 after either 4 or 8 days: single agents at the concentrations of Table 2
Experimental: Freshly isolated human blood lymphocytes and monocytes were infected with HIV-1 (RF strain) and then incubated for an additional 3 days in the presence of compounds alone or in combinations or left untreated. At the end of 4 days, the infected cells were briefly centrifuged. The supernatant was collected and used to titer HIV p24, using an enzyme-linked immunosorbent assay (ELISA). The cell pellets were washed two times with medium lacking any inhibitors, and the washed human peripheral blood mononuclear cells (PBMCs) were mixed 1:1 with MT-2 lymphocytes and incubated for an additional 4 days absent any inhibitors. All cells were then removed by centrifugation and the supernatant was again assayed for p24 levels by ELISA.
Viral p24 produced by HIV-1 (RF) infected cells was quantified to determine the effects of a cytotoxic drug and efavirenz alone or in combination. On day one, 5.25×10^e6 donor PBMCs (stimulated by PHA/IL-2 for 72 hours in RPMI tissue culture medium were centrifuged at 1,000 rpm for 10 minutes and the supernatant fluid was decanted. Using 50% tissue culture infectious dose (TCID50) estimated from the viral stock titration procedure (PRR 97-04), 5.25×10^6 PBMCs were infected with 5.2×10^3 TCID50 of virus (M. O. I. ˜0.001). Cells were resuspended, the virus stock added, and incubated at 37° C. for one hour. RPMI was added to the infected PBMCs and unabsorbed virus in the supernatant fluid was removed following centrifugation. The cells were resuspended in 10 mL RPMI (20% FCS, 30 units IL-2/mL) and placed in a 25 cm^2 tissue culture flask. The virus control flask contained infected cells only. Similar flasks contained efavirenz or the cytotoxic drug added separately or in combination. Flasks were incubated at 37° C., in 5% CO2 for 3 days. On day 4, the contents of each flask were centrifuged and the supernatant, inactivated with 0.5% Triton X-100, was frozen at −70° C. for p24 analysis. The infected PBMCs were resuspended in RPMI, centrifuged again, and the supernatant discarded to remove residual drugs. The pellets were resuspended in each flask, and 1×10^e6 MT-2 cells were added. The final volume was 10 mL RPMI (5% FCS) per flask. After 4 more days of incubation (day 8), supernatant from each flask was inactivated with Triton X-100 and frozen at −70° C. The p24 antigen concentration of viral supernatants from days 4 and 8 was determined using the NEN Life Science Products HIV-1 p24 antigen capture assay.

HIV-1 (RF strain) [2] = assay type: cell-based; conditions: for Infectious Centers (Day 8), p24: single agent, PBMCs washed, co-cultivated with MT-2, Table 2
[3] = test system: human T-lymphocytes (MT-2) infected with HIV-1; assay: Toxicity of compounds for HIV-1-infected MT-2 cells (MTT assay); conditions: for killing of infected cells relative to uninfected lymphocytes: after 24 hours, losoxantrone 10 nM, etoposide 100 nM
Excerpt: (§1) In order to test whether some external death stimuli, which are independent of bcl-2 (Reed, 1994), may not selectively kill HIV-infected cells, we exposed uninfected and HIV-infected cells to various chemical toxins, including losoxantrone, bisnafide, etoposide and hydroxyurea. […] Therefore, we proceeded to examine whether either losoxantrone or etoposide were able to selectively kill HIV-infected cells.
The concentration of the cytotoxic drugs losoxantrone, etoposide or hydroxyurea required to reduce cell viability by 50% (TC50) was determined with or without virus infection. Graded concentrations of drug in RPMI (5% FCS) were added to a 96-well microtiter plate. 1×10^e5 cells were added per well. Cell control wells contained cells in RPMI only. […] The tetrazolium dye (3-4,5-dimethylthiazol-2yl)-2,5-diphenyltetrazolium bromide (MTT) was used to assess the number of viable cells. […] Following a 2 hour incubation at 37° C., 150 μL was removed from each well and 200 μL of 0.04 N HCl in isopropanol was added. The contents of each well were mixed and the quantity of reduced dye was measured by absorbance at 570 nm. The concentration of compound producing a 50% reduction in signal relative to the untreated cultures (TC50) was determined.

[4] = Toxicity of compounds for uninfected MT-2 cells (MTT assay); conditions: human
Excerpt: as §1
(§2) The concentration of the cytotoxic drugs losoxantrone, etoposide or hydroxyurea required to reduce cell viability by 50% (TC50) was determined with or without virus infection. Graded concentrations of drug in RPMI (5% FCS) were added to a 96-well microtiter plate. 1×10^e5 cells were added per well. Cell control wells contained cells in RPMI only. Plates were incubated at 37° C., 5% CO2 for 3 days. The tetrazolium dye (3-4,5-dimethylthiazol-2yl)-2,5-diphenyltetrazolium bromide (MTT) was used to assess the number of viable cells. After the 3-day incubation period, 10 μL of MTT (5 mg/mL in 1×PBS) was added to each well. Following a 2 hour incubation at 37° C., 150 μL was removed from each well and 200 μL of 0.04 N HCl in isopropanol was added. The contents of each well were mixed and the quantity of reduced dye was measured by absorbance at 570 nm. The concentration of compound producing a 50% reduction in signal relative to the untreated cultures (TC50) was determined.

PBMC = assay: Inhibition of PBMC cell division; assay type: cell-based, human; conditions: 100 μM
[5] = test system: human T-lymphocytes (MT-2); assay: Toxicity of compounds for uninfected MT-2 cells (MTT assay)
Excerpt: as §1, §2

[6] = Homo sapiens, T-lymphocyte, read-out: Viable Cells (% Remaining) +HIV

Structure (SMILES) | changes in the level of HIV p24 after either 4 or 8 days (HIV-1 (RF strain) [1]) | HIV Replication (Day 4), p24 (HIV-1 (RF strain) [1]; 10 nM) | viability at 0.01 µM [3, 6] | Infectious Centers (Day 8), p24 (HIV-1 (RF strain) [2]; 10 nM) | killing of infected cells relative to uninfected lymphocytes [3] | further results
Nc1cccc(CN2C(=O)N(Cc3cccc(N)c3)[C@H](Cc3ccccc3)[C@H](O)[C@@H](O)[C@H]2Cc2ccccc2)c1 [Compound E, [4R-(4α, 5α, 6β, 7β]-1,3-bis (3-aminophenylmethyl]hexahydro-5,6-dihydroxy-4,7-bis (phenlymethyl-2H-1,3-diazepin-2-one dimethylsulfonate] | only small changes |  |  |  |  | HIV Replication (Day 4), p24 (HIV-1 (RF strain) [1]; 100 nM): 25000 pg/mL; Infectious Centers (Day 8), p24 (HIV-1 (RF strain) [2]; 100 nM): 350000 pg/mL
O=C1Nc2ccc(Cl)cc2[C@@](C#CC2CC2)(C(F)(F)F)O1 [efavirenz] | only small changes | 15000 pg/mL | 82% | 200000 pg/mL |  | viability at 24 h, 0.01 µM ([4]; uninfected MT-2 T-lymphocytes): 81%
COc1cc([C@@H]2c3cc4c(cc3[C@@H](O[C@@H]3O[C@@H]5CO[C@@H](C)O[C@H]5[C@H](O)[C@H]3O)[C@H]3COC(=O)[C@H]23)OCO4)cc(OC)c1O [etoposide] |  |  |  |  | 6 fold | viability at 0.1 µM [3, 6]: 12%; viability at 24 h, 0.1 µM [4]: 71%; p24 results when substituted for losoxantrone (HIV-1 (RF strain) [2]; compared with the losoxantrone results, not shown): very similar
NC(=O)NO [hydroxyurea] |  |  |  |  |  | inhibition of PBMC cell division (PBMC): 3 fold
O=C1c2c(O)cccc2-c2nn(CCNCCO)c3ccc(NCCNCCO)c1c23 [losoxantrone] | only small changes | 200000 pg/mL | 4% | 700000 pg/mL | 5 fold | increase in p24 titers (HIV-1 (RF strain) [1]; 10 nM, days 4 and 8): 3 to 7 fold; range of concentrations that show selectivity for infected cells ([3]; cell survival, infected vs. control cells): 0.1 to 10 nM; concentration with evidence of substantial toxicity to uninfected cells [5]: ≥ 10 nM; viability at 24 h, 0.01 µM [4]: 68%
